Experimental data from ChEMBL document CHEMBL1153484, “Design, synthesis and evaluation of N-[(3S)-pyrrolidin-3-yl]benzamides as selective noradrenaline reuptake inhibitors: CNS penetration in a more polar template” (Bioorg Med Chem Lett, 2009).
The source made the active and inactive calls. The calls are words filed in the database; no cut-off is given here.

Legend:
[1] = system: MDR1 (P-gp); test: Apparent permeability from basolateral to apical side of MDCK cells expressing MDR1 at 10 uM; assay type: ADME, cell-based, Canis lupus familiaris; details: dog
[2] = biological target: Sodium-dependent serotonin transporter (Homo sapiens, UniProt P31645); test: Displacement of [3H]citalopram from human recombinant SERT expressed in HEK293 cells by scintillation proximity assay; assay type: cell-based
[3] = biological target: T1, Muscarinic acetylcholine receptor M4 (Homo sapiens) (UniProt P08173); test: Binding affinity to human muscarinic M4 receptor at 10 uM
T1 sequence (whole entry): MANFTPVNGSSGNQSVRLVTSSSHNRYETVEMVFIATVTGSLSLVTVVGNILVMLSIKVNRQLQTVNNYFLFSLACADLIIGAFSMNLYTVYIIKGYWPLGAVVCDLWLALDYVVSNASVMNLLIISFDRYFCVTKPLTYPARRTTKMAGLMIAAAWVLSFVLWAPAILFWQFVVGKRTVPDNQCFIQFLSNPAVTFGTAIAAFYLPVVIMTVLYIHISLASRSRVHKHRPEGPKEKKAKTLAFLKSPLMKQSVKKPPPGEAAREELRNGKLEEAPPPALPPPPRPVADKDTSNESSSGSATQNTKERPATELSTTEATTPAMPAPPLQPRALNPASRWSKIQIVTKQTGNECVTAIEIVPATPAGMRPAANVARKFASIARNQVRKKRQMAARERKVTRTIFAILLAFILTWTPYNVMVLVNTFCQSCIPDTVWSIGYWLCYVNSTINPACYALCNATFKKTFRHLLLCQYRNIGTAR

[4] = biological target: Cytochrome P450 2D6 (Homo sapiens, UniProt P10635); test: Inhibition of CYP2D6; assay type: ADME
[5] = Dissociation constant, pKa of the compound; assay type: physicochemical
[6] = system: MDR1 (P-gp); test: Apparent permeability from apical to basolateral side of MDCK cells expressing MDR1 at 10 uM; assay type: ADME, cell-based, Canis lupus familiaris; details: dog
[7] = biological target: T2, Cytochrome P450 3A4 (Homo sapiens, UniProt P08684); test: Inhibition of CYP3A4 using midazolam as substrate; assay type: ADME
T2 sequence (P08684 whole entry): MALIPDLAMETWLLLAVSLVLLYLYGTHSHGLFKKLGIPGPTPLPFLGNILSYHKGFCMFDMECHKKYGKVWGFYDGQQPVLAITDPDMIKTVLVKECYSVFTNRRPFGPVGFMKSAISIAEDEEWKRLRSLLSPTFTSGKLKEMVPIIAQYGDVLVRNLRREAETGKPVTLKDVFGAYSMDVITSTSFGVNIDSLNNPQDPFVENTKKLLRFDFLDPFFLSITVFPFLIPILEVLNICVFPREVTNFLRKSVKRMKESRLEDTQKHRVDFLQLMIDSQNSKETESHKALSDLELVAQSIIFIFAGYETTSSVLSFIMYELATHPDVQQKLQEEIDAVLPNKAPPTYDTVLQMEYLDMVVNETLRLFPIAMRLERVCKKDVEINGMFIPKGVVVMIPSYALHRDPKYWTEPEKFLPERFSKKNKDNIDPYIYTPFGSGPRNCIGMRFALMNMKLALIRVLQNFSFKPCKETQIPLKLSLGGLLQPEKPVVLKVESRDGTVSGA

[8] = Apparent permeability from basolateral to apical side of human Caco-2 cells at 10 uM; assay type: ADME, cell-based
[9] = biological target: Cytochrome P450 2C9 (Homo sapiens, UniProt P11712); test: Inhibition of CYP2C9; assay type: ADME
Chain of Cytochrome P450 2C9 (P11712 whole entry): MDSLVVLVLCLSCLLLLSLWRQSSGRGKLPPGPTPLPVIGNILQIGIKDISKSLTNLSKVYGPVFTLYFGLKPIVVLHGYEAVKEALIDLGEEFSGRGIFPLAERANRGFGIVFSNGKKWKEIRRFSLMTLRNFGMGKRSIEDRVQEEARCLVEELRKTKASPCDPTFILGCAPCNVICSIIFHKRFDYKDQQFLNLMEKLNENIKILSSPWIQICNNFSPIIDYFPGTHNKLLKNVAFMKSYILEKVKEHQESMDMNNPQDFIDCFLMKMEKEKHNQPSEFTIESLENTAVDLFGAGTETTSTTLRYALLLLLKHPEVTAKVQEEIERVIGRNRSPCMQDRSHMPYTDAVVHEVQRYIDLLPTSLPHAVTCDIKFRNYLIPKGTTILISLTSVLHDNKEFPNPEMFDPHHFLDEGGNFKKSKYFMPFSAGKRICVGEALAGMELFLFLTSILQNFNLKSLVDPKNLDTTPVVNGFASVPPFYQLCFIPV

[10] = system: MDR1 (P-gp); test: Efflux ratio of permeability from […] in MDCK cells expressing MDR1 at 10 uM; assay type: ADME, cell-based, Canis lupus familiaris; details: dog
[11] = biological target: Sodium-dependent noradrenaline transporter (Homo sapiens, UniProt P23975); test: Displacement of [3H]nisoxetine from human recombinant NET expressed in HEK293 cells by scintillation proximity assay; assay type: cell-based
Chain of Sodium-dependent noradrenaline transporter (P23975 whole entry): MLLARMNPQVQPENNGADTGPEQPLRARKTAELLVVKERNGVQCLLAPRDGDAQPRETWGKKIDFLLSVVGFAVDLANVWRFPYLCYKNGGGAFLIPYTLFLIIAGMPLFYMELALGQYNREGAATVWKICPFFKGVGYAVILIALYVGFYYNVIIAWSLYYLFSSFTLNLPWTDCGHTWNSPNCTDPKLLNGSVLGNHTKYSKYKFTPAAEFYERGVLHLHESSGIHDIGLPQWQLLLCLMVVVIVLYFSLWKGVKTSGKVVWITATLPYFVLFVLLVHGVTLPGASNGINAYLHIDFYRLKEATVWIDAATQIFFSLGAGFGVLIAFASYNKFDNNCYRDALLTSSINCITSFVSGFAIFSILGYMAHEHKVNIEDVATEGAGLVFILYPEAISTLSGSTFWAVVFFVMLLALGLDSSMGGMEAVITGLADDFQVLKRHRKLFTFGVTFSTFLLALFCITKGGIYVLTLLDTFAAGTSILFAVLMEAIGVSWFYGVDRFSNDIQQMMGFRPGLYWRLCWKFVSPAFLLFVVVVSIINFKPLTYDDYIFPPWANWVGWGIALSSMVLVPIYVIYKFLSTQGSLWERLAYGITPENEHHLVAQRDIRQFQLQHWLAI

[12] = system: Rattus norvegicus; test: Effect on 5-hydroxyindoleacetic acid level in rat prefrontal cortex up to 3.2 mg/kg, sc by microdialysis method; assay type: functional, organism-based; design: dose 3.2 mg/kg
[13] = Intrinsic clearance in human liver microsomes; assay type: ADME, Microsome
[14] = biological target: T3, Muscarinic acetylcholine receptor M5 (Homo sapiens) (UniProt P08912); test: Binding affinity to human muscarinic M5 receptor at 10 uM
T3 sequence (whole entry): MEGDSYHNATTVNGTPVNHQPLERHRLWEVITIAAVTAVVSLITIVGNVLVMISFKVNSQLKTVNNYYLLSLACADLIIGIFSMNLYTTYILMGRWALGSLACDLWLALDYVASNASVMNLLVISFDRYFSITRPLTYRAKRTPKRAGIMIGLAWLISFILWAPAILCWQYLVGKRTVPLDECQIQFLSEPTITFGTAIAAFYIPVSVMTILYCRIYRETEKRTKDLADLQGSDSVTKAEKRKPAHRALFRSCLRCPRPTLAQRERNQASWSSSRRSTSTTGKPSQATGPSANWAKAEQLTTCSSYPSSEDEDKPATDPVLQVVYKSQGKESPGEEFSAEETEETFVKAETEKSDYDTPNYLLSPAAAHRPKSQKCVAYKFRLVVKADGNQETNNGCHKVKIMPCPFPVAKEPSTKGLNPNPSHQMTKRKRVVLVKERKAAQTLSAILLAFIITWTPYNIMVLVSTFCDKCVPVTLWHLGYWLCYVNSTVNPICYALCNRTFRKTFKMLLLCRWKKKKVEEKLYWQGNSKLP

[15] = biological target: Cytochrome P450 2C19 (Homo sapiens, UniProt P33261); test: Inhibition of CYP2C19; assay type: ADME
[16] = system: Rattus norvegicus; test: Effect on dihydroxyphenylacetic acid level in rat prefrontal cortex up to 3.2 mg/kg, sc by microdialysis method; assay type: functional, organism-based; design: dose 3.2 mg/kg
[17] = biological target: Transporter (Rattus norvegicus, UniProt Q63380); test: Binding affinity to rat NET expressed in HEK293 cells; assay type: cell-based
Chain of Transporter (Q63380 whole entry): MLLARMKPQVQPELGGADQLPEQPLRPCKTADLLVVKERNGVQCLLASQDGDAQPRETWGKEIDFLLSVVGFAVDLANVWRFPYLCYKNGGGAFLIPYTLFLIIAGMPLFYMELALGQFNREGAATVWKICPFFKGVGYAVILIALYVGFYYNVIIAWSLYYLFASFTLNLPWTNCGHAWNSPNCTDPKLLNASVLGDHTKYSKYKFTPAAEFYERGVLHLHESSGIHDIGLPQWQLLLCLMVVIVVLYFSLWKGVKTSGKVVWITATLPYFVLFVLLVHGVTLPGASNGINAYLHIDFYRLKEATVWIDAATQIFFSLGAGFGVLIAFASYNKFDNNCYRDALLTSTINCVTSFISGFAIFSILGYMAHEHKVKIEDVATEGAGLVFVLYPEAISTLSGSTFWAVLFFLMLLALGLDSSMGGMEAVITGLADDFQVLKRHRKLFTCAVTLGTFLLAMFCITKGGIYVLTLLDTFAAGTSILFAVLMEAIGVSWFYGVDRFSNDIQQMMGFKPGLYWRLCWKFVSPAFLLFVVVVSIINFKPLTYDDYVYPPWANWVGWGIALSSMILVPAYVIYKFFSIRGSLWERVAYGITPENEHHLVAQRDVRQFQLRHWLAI

[18] = biological target: T4, Muscarinic acetylcholine receptor M5 (Homo sapiens, UniProt P08912); test: Binding affinity to human muscarinic M5 receptor
T4 sequence (P08912 whole entry): T3 sequence (whole entry)

[19] = biological target: Voltage-gated inwardly rectifying potassium channel KCNH2 (Homo sapiens, UniProt Q12809); test: Displacement of [3H]dofetilide from human ERG
[20] = biological target: T2, Cytochrome P450 3A4; test: Inhibition of CYP3A4 using testosterone as substrate; assay type: ADME
[21] = biological target: Sodium channel protein type 5 subunit alpha (Homo sapiens, UniProt Q14524); test: Blockade of Nav1.5 sodium channel
Chain of Sodium channel protein type 5 subunit alpha (Q14524 whole entry): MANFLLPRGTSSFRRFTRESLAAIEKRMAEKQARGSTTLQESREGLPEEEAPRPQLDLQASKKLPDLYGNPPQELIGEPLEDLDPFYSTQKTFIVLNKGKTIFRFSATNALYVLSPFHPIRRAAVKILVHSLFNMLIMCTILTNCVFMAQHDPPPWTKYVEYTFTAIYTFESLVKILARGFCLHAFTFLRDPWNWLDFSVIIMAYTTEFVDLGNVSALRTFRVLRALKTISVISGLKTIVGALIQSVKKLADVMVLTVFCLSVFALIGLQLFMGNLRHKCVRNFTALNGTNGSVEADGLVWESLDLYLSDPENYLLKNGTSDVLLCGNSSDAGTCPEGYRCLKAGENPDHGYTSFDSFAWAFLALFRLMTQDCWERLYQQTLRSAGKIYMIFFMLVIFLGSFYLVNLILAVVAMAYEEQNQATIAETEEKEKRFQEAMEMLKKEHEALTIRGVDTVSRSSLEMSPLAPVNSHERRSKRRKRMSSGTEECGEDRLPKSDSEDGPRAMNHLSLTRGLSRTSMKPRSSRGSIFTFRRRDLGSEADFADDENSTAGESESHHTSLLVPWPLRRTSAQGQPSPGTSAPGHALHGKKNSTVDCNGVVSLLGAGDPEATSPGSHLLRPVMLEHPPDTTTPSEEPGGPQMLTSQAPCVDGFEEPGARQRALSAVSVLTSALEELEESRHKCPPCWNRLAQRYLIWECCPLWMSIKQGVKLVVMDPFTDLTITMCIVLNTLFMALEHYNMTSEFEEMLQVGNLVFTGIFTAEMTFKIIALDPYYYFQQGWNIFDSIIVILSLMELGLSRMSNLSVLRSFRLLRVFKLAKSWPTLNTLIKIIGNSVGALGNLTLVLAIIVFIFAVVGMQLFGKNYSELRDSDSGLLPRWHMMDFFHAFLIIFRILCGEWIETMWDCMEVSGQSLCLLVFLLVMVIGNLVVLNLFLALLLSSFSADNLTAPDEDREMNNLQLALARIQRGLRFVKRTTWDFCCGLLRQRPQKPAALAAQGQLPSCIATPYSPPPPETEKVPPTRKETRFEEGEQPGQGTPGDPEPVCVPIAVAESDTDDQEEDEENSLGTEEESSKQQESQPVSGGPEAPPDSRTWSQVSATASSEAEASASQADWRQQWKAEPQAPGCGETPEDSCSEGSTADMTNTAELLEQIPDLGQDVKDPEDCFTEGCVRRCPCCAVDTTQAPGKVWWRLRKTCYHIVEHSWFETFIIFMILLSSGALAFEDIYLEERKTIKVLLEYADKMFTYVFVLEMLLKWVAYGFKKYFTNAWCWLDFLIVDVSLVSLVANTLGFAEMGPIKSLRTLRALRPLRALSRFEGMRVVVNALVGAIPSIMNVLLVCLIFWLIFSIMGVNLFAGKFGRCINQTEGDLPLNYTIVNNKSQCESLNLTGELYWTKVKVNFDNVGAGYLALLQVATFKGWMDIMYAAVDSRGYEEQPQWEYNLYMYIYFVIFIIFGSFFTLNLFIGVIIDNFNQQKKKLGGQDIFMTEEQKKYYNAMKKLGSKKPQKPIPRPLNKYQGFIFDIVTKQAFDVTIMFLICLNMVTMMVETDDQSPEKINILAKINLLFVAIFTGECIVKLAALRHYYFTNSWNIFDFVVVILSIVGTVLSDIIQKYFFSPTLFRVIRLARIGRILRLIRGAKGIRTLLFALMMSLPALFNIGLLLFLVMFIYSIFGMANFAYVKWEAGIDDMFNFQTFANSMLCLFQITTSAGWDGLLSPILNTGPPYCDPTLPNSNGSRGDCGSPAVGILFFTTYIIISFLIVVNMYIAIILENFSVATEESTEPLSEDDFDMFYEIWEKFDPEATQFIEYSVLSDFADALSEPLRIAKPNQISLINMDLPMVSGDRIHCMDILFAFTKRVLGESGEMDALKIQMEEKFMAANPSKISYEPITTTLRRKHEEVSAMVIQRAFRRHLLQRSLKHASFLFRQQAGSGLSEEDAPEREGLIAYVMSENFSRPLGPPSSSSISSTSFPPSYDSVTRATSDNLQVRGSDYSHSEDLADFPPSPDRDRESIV

[22] = biological target: Sodium-dependent dopamine transporter (Homo sapiens, UniProt Q01959); test: Displacement of radioligand from human recombinant DAT expressed in HEK293 cells by scintillation proximity assay; assay type: cell-based
Chain of Sodium-dependent dopamine transporter (Q01959 whole entry): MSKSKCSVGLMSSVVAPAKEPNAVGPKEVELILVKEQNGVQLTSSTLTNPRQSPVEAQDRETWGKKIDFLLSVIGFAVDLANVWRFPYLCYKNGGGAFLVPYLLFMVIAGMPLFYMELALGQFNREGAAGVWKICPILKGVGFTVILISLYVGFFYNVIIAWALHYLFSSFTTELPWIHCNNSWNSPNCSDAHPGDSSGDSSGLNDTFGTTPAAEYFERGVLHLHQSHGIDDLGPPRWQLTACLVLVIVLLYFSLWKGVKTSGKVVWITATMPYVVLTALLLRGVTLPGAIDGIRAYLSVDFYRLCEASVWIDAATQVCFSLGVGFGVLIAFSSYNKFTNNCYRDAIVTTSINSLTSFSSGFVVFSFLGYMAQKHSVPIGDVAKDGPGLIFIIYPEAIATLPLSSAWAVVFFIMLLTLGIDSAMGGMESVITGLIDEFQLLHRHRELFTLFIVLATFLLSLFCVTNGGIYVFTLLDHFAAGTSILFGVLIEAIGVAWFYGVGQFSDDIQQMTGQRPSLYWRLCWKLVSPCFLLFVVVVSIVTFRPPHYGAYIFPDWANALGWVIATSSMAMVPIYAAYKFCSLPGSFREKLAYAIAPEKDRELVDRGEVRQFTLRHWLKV

[23] = system: Rattus norvegicus; test: Ex vivo NET occupancy in rat neocortical tissue at 3 mg/kg, sc after 1 hr by [3H]nisoxetine binding assay; assay type: functional; details: route subcutaneous
[24] = system: Rattus norvegicus; test: Increase in noradrenaline level in interstitial fluid of rat prefrontal cortex at 0.3 to 3.2 mg/kg, sc by microdialysis method relative to baseline level; assay type: functional; details: dose mg/kg 0.3-3.2; route subcutaneous
[25] = biological target: T2, Cytochrome P450 3A4; test: Inhibition of CYP3A4 using felodipine as substrate; assay type: ADME
[26] = Binding affinity to sodium channel site 2
[27] = biological target: hERG (KCNH2) (Homo sapiens, UniProt Q12809); test: Displacement of [3H]dofetilide from human ERG at 10 uM; details: probe [3H]dofetilide
[28] = biological target: T5, Cytochrome P450 1A2 (Homo sapiens, UniProt P05177); test: Inhibition of CYP1A2; assay type: ADME
T5 sequence (P05177 whole entry): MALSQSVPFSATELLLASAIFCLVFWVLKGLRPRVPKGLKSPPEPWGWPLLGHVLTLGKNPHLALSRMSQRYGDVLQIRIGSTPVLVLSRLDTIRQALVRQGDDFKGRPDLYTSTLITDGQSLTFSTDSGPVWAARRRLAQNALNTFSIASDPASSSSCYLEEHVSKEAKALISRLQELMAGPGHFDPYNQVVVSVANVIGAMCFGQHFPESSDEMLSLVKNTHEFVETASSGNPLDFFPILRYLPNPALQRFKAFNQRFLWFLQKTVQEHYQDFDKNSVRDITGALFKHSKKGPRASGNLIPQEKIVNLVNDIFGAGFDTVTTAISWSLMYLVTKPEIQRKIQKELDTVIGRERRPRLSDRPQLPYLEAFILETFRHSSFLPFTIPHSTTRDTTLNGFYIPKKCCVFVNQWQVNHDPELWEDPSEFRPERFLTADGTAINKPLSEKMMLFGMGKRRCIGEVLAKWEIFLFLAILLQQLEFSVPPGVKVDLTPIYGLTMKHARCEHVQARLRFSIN

[29] = biological target: T6, Muscarinic acetylcholine receptor M4 (Homo sapiens, UniProt P08173); test: Binding affinity to human muscarinic M4 receptor
T6 sequence (P08173 whole entry): T1 sequence (whole entry)

[30] = Apparent permeability from apical to basolateral side of human Caco-2 cells at 10 uM; assay type: ADME, cell-based

Structure (SMILES): O=C(c1ccccc1C(F)(F)F)N(CC1CCC1)[C@H]1CCNC1
- Papp B→A at 10 µM [1]: 57 ×10⁻⁶ cm/s
- Ki [2]: 0.224 µM
- inhibition [3]: > 50%
- IC50 [4]: 15.1 µM
- pKa [5]: 9.5
- Papp A→B at 10 µM [6]: 11 ×10⁻⁶ cm/s
- IC50 [7]: 12.2 µM
- Papp B→A at 10 µM [8]: 33 ×10⁻⁶ cm/s
- IC50 [9]: > 30 µM
- efflux ratio at 10 µM [10]: 5.2
- Ki [11]: 0.006 µM
- Activity [12]: inactive
- microsomal CLint [13]: < 7 µL/min/mg
- inhibition [14]: > 50%
- IC50 [15]: > 30 µM
- Activity [16]: inactive
- Ki [17]: 0.0039 µM
- Ki [18]: 1.8 µM
- IC50 [19]: > 20 µM
- IC50 [20]: 31.2 µM
- IC50 [21]: > 26 µM
- Ki [22]: 2.29 µM
- Activity [23]: 52%
- Activity [24]: 200%
- IC50 [25]: 22 µM
- Ki [26]: 3.7 µM
- inhibition at 10 µM [27]: 48%
- IC50 [28]: > 30 µM
- Ki [29]: 4.3 µM
- Papp A→B at 10 µM [30]: 16 ×10⁻⁶ cm/s
